According to paper PMC5788414 (Journal of Medicinal Chemistry, 2017):
Peptide text beside a SMILES is read from it. * marks the point of attachment. Cbz = O=C(OCc1ccccc1)*

What was measured:
[1] = tested on: RS4;11 acute leukemia cell line; assay: Cell growth inhibition; type: cell-based, human; settings: for times less potent than 15 in cell growth inhibition: comparator 15; for times more potent than 9 in cell growth inhibition: comparator 9
[2] = tested on: BRD2, BRD3, and BRD4 proteins; assay: Western blotting of BET protein levels in RS4; type: cell-based, human; settings: RS4;11 cells; for Effect of pretreatment on degradation of BRD2, BRD3, and BRD4 induced by 23: 2 h pretreatment, then 3 h treatment with 23 at 1 nM

**Q.** For `CCn1nc(C2CC2)cc1Nc1nc(C(=O)NCCCCCCCNc2cccc3c2C(=O)N(C2CCC(=O)NC2=O)C3=O)nc2[nH]c3cc(-c4c(C)noc4C)c(OC)cc3c12` (stereo not shown) [Compound 12, 4-((3-Cyclopropyl-1-ethyl-1H-pyrazol-5-yl)amino)-7-(3,5-dimethylisoxazol-4-yl)-N-(7-((2-(2,6-dioxopiperidin-3-yl)-1,3-dioxoisoindolin-4-yl)amino)heptyl)-6-methoxy-9H-pyrimido[4,5-b]indole-2-carboxamide], which “times more potent than 10 in cell growth inhibition” value ([1]; comparator 10) is on record?
**A.** Its value is 10 times.

**Q.** `CC(C)C[C@@H](C=O)NC(=O)[C@H](CC(C)C)NC(=O)[C@H](CC(C)C)NC(=O)OCc1ccccc1` [MG-132, reference compound] (Cbz-Leu-Leu-Leu-aldehyde) was tested. Which “Effect of pretreatment on degradation of BRD2, BRD3, and BRD4 induced by 23” value (“Effect of pretreatment” below) [2] did it give?
**A.** The value was “completely block”.

**Q.** How did the “times less potent than 18 in cell growth inhibition” value ([1]; comparator 18) turn out when `CCn1nc(C2CC2)cc1Nc1nc(C(=O)NCCOCCCc2cccc3c2C(=O)N(C2CCC(=O)NC2=O)C3=O)nc2[nH]c3cc(-c4c(C)noc4C)c(OC)cc3c12` (stereo not shown) [Compound 19, 4-((3-Cyclopropyl-1-ethyl-1H-pyrazol-5-yl)amino)-7-(3,5-dimethylisoxazol-4-yl)-N-(2-(3-(2-(2,6-dioxopiperidin-3-yl)-1,3-dioxoisoindolin-4-yl)propoxy)ethyl)-6-methoxy-9H-pyrimido[4,5-b]indole-2-carboxamide] was run?
**A.** Its value is 2 times.

**Q.** Which “times less potent than 19 in cell growth inhibition” value ([1]; comparator 19) does the source give for `CCn1nc(C2CC2)cc1Nc1nc(C(=O)NCCOCCCc2cccc3c2CN(C2CCC(=O)NC2=O)C3=O)nc2[nH]c3cc(-c4c(C)noc4C)c(OC)cc3c12` (stereo not shown) [Compound 22, 4-((3-Cyclopropyl-1-ethyl-1H-pyrazol-5-yl)amino)-7-(3,5-dimethylisoxazol-4-yl)-N-(2-(3-(2-(2,6-dioxopiperidin-3-yl)-1-oxoisoindolin-4-yl)propoxy)ethyl)-6-methoxy-9H-pyrimido[4,5-b]indole-2-carboxamide] here?
**A.** Its value is 2 times.

**Q.** For “4-((3-Cyclopropyl-1-ethyl-1H-pyrazol-5-yl)amino)-7-(3,5-dimethylisoxazol-4-yl)-N-(3-((2-(2,6-dioxopiperidin-3-yl)-1,3-dioxoisoindolin-4-yl)amino)propyl)-6-methoxy-9H-pyrimido[4,5-b]indole-2-carboxamide [Compound 16]”, which “times less potent than 15 in cell growth inhibition” value [1] is on record?
**A.** The value was 5 times.

**Q.** How did the “times less potent than 12 in cell growth inhibition” value ([1]; comparator 12) turn out when `CCn1nc(C2CC2)cc1Nc1nc(C(=O)NCCCCCCNc2cccc3c2C(=O)N(C2CCC(=O)NC2=O)C3=O)nc2[nH]c3cc(-c4c(C)noc4C)c(OC)cc3c12` (stereo not shown) [Compound 13, 4-((3-Cyclopropyl-1-ethyl-1H-pyrazol-5-yl)amino)-7-(3,5-dimethylisoxazol-4-yl)-N-(6-((2-(2,6-dioxopiperidin-3-yl)-1,3-dioxoisoindolin-4-yl)amino)hexyl)-6-methoxy-9H-pyrimido[4,5-b]indole-2-carboxamide] was run?
**A.** Its value is 3 times.

**Q.** Which results are given for `CCn1nc(C2CC2)cc1Nc1nc(C(=O)NCCCCNC(=O)COc2cccc3c2C(=O)N(C2CCC(=O)NC2=O)C3=O)nc2[nH]c3cc(-c4c(C)noc4C)c(OC)cc3c12` (stereo not shown) [Compound 9, 4-((3-Cyclopropyl-1-ethyl-1H-pyrazol-5-yl)amino)-7-(3,5-dimethylisoxazol-4-yl)-N-(4-(2-((2-(2,6-dioxopiperidin-3-yl)-1,3-dioxoisoindolin-4-yl)oxy)acetamido)butyl)-6-methoxy-9H-pyrimido[4,5-b]indole-2-carboxamide]?
**A.** times more potent than 8 in cell growth inhibition ([1]; comparator 8): 6 times; Lowest concentrations effective in decreasing the level of BRD2, BRD3, and BRD4 proteins ([2]; 3 h treatment, Western blot): 3 to 10 nM

**Q.** How did the “times more potent than 9 in cell growth inhibition” value [1] turn out when `CCn1nc(C2CC2)cc1Nc1nc(C(=O)NCCCCNC(=O)CNc2cccc3c2C(=O)N(C2CCC(=O)NC2=O)C3=O)nc2[nH]c3cc(-c4c(C)noc4C)c(OC)cc3c12` (stereo not shown) [Compound 10, 4-((3-Cyclopropyl-1-ethyl-1H-pyrazol-5-yl)amino)-7-(3,5-dimethylisoxazol-4-yl)-N-(4-(2-((2-(2,6-dioxopiperidin-3-yl)-1,3-dioxoisoindolin-4-yl)amino)acetamido)butyl)-6-methoxy-9H-pyrimido[4,5-b]indole-2-carboxamide] was run?
**A.** Its value is 2 times.

**Q.** For `NS(=O)(=O)OC[C@@H]1C[C@@H](n2ccc3c(N[C@H]4CCc5ccccc54)ncnc32)C[C@@H]1O` [MLN4924, reference compound], which “Effect of pretreatment” value [2] is on record?
**A.** The value was “completely block”.

**Q.** `Nc1cccc2c1CN(C1CCC(=O)NC1=O)C2=O` (stereo not shown) [lenalidomide, reference compound] was tested. Which “Effect of pretreatment” value [2] did it give?
**A.** Its value is “effectively blocks”.

**Q.** What does the source list for `CCn1nc(C2CC2)cc1Nc1nc(C(=O)NCCCCCc2cccc3c2CN(C2CCC(=O)N(C)C2=O)C3=O)nc2[nH]c3cc(-c4c(C)noc4C)c(OC)cc3c12` (stereo not shown) [Compound 26, 4-((3-Cyclopropyl-1-ethyl-1H-pyrazol-5-yl)amino)-7-(3,5-dimethylisoxazol-4-yl)-6-methoxy-N-(5-(2-(1-methyl-2,6-dioxopiperidin-3-yl)-1-oxoisoindolin-4-yl)pentyl)-9H-pyrimido[4,5-b]indole-2-carboxamide]?
**A.** times less potent than 23 in cell growth inhibition ([1]; comparator 23): > 600 times; Effect on the level of BRD2, BRD3, and BRD4 proteins ([2]; 3 h treatment, Western blot): fails to induce degradation

**Q.** `CCn1nc(C2CC2)cc1Nc1nc(C(=O)NCCCCCCCOc2cccc3c2C(=O)N(C2CCC(=O)NC2=O)C3=O)nc2[nH]c3cc(-c4c(C)noc4C)c(OC)cc3c12` (stereo not shown) [Compound 11, 4-((3-Cyclopropyl-1-ethyl-1H-pyrazol-5-yl)amino)-7-(3,5-dimethylisoxazol-4-yl)-N-(7-((2-(2,6-dioxopiperidin-3-yl)-1,3-dioxoisoindolin-4-yl)oxy)heptyl)-6-methoxy-9H-pyrimido[4,5-b]indole-2-carboxamide] was tested. Which “times more potent than 9 in cell growth inhibition” value [1] did it give?
**A.** Its value is 10 times.

**Q.** With `CCn1nc(C2CC2)cc1Nc1nc(C(=O)NCCCCNc2cccc3c2C(=O)N(C2CCC(=O)NC2=O)C3=O)nc2[nH]c3cc(-c4c(C)noc4C)c(OC)cc3c12` (stereo not shown) [Compound 15, 4-((3-Cyclopropyl-1-ethyl-1H-pyrazol-5-yl)amino)-7-(3,5-dimethylisoxazol-4-yl)-N-(4-((2-(2,6-dioxopiperidin-3-yl)-1,3-dioxoisoindolin-4-yl)amino)butyl)-6-methoxy-9H-pyrimido[4,5-b]indole-2-carboxamide] as the molecule, how does the “times less potent than 14 in cell growth inhibition” value ([1]; comparator 14) read?
**A.** Its value is roughly 3 times.

**Q.** How did the “times less potent than 15 in cell growth inhibition” value [1] turn out when “4-((3-Cyclopropyl-1-ethyl-1H-pyrazol-5-yl)amino)-7-(3,5-dimethylisoxazol-4-yl)-N-(2-((2-(2,6-dioxopiperidin-3-yl)-1,3-dioxoisoindolin-4-yl)amino)ethyl)-6-methoxy-9H-pyrimido[4,5-b]indole-2-carboxamide [Compound 17]” was run?
**A.** Its value is 10 times.
